Read-outs that look alike come from different tables or passages of the source.
Key:
cmc by conductivity = type: physicochemical; settings: conductivity measurements; BAC mixture C12 (70%) and C14 (30%)
[1] = system: Candida albicans ATCC 90028; assay: MIC broth microdilution; type: cell-based; settings: C. albicans
Procedure: (§1) The antimicrobial activity of these compounds was assessed against selected yeast and bacterial strains: Candida albicans ATCC 90028 (CA9), Candida rugosa ATCC 10571 (CR), Candida glabrata ATCC 66032 (CG), Candida parapsilosis ATCC 22019 (CP), Candida tropicalis ATCC 7349 (CT), Candida auris ATCC 21092 (CA), and Cyberlindnera jadinii ATCC 60459. Frozen yeast stocks were plated on Sabouraud agar (SBA) and incubated at 30 °C for 24 h. Three to four colonies from each strain were then suspended in RPMI 1640 (Roswell Park Memorial Institute medium, Sigma- Aldrich, Merck, Darmstadt, Germany) to prepare bacterial dispersions of ~1.5 × 10^6 CFU/mL.
(§2) A broth microdilution assay was used to calculate MIC values. Twofold serially diluted compounds in RPMI 1640 medium (from 256 to 2 μg/mL), were dispensed (100 μL per well) into a 96-well plate. Then, 100 μL of a yeast starter culture was added to each well to reach a final inoculum of 7.5 × 10^5 CFU/mL. Wells containing only nutrient broth without the tested surfactant served as growth controls. Microbial growth was assessed by turbidity, which reflects increases in biomass and cell count. […] To confirm the obtained MICs, 20 μL of 0.015% (w/v) resazurin was dispensed to each well and incubated for 3 h at 30 °C. Metabolic activity was evidenced by a color change from blue to pink, thereby confirming the MIC value.

Candida auris ATCC 21092 = assay: MIC broth microdilution; type: cell-based; settings: C. auris
Procedure: as §1, §2

[2] = system: Candida glabrata ATCC 66032; assay: MIC broth microdilution; type: cell-based; settings: C. glabrata
Procedure: as §1, §2

[3] = system: Candida parapsilosis ATCC 22019; assay: MIC broth microdilution; type: cell-based; settings: C. parapsilosis
Procedure: as §1, §2

[4] = system: Candida rugosa ATCC 10571; assay: MIC broth microdilution; type: cell-based; settings: C. rugosa
Procedure: as §1, §2

[5] = system: Candida tropicalis ATCC 7349; assay: MIC broth microdilution; type: cell-based; settings: C. tropicalis
Procedure: as §1, §2

[6] = system: Cyberlindnera jadinii ATCC 60459 (C. jardinii); assay: MIC broth microdilution; type: cell-based; settings: C. jardinii
Procedure: as §1, §2

erythrocytes = assay: Hemolytic activity assay; type: cell-based; settings: rabbit erythrocytes
Procedure: Fresh rabbit blood was obtained from the Animal Facility of the CID-CSIC (Research and Development Center, Spanish National Research Council, Barcelona, Spain). Sample collection was conducted in strict compliance with the bioethical guidelines established under Spanish legislation. Erythrocytes were isolated by centrifugation (3000 rpm/10 min). The supernatant was discarded, and the erythrocytes were washed three times with PBS (phosphate-buffered saline, pH 7.4) and then resuspended in PBS at a concentration of 8 × 10^9 cells/mL. Subsequently, varying volumes of a concentrated surfactant solution were added to Eppendorf tubes containing 25 μL of erythrocyte suspension. PBS was then added to bring the total volume to 1 mL. The samples were gently shaken for 10 min at room temperature and centrifuged at 10,000 rpm for 5 min. Hemolysis was evaluated by measuring the absorbance of the supernatant at 540 nm and comparing it to that of a 100% hemolysis control (erythrocytes treated with distilled water). The HC50, defined as the surfactant concentration that induces 50% hemolysis, was determined from the concentration–response curves: % hemolysis= Abstest compound/AbsBasal haemolytic activity ×100

Daphnia magna = assay: Acute toxicity, immobilization test; type: in vivo; settings: Daphnia magna immobilization, 48 h of exposure; 95% confidence intervals in parentheses
Procedure: Aquatic toxicity evaluation was performed using Daphnia magna following established protocols. This bioassay method employs laboratory-cultured freshwater microcrustaceans to evaluate surfactant toxicity in aquatic environments. Test organisms were utilized during their initial 24 h life stage to ensure consistency. The endpoint measurement focused on mobility impairment, specifically the loss of swimming capability after gentle stimulation lasting 15 s. Testing conditions included controlled water chemistry parameters: pH maintained at 8.0, calcium-to-magnesium ratio of 4:1, and total hardness of 250 mg/L as CaCO3. All experiments were conducted under dark conditions at 20 °C. The experimental design incorporated ten test concentrations for each surfactant compound, distributed in geometric progression. Each concentration level included 20 Daphnia specimens distributed across four replicate groups of five organisms each. Mobility assessment occurred at 48 h post-exposure, with immobilization percentages plotted against concentration using probability–logarithmic scaling.

[7] = value in parentheses, read-out: MIC

benzalkonium chloride [BAC, reference compound]
cmc (cmc by conductivity): 5.2 mM | MIC ([1]; RPMI 1640, 24 h, 30 °C): 8 µg/mL | MIC [1, 7]: 24 µM | MIC (Candida auris ATCC 21092; RPMI 1640, 24 h, 30 °C): 32 µg/mL | MIC (Candida auris ATCC 21092; [7]): 98 µM | MIC ([2]; RPMI 1640, 24 h, 30 °C): 8 µg/mL | MIC [2, 7]: 24 µM | MIC ([3]; RPMI 1640, 24 h, 30 °C): 4 µg/mL | MIC [3, 7]: 12 µM | MIC ([4]; RPMI 1640, 24 h, 30 °C): 8 µg/mL | MIC [4, 7]: 24 µM | MIC ([5]; RPMI 1640, 24 h, 30 °C): 4 µg/mL | MIC [5, 7]: 12 µM | MIC ([6]; RPMI 1640, 24 h, 30 °C): 16 µg/mL | MIC [6, 7]: 48 µM | HC50 (erythrocytes; 10 min, room temperature): 31 ± 0.3 µg/mL | HC50 (erythrocytes; value in parentheses): 92 ± 0.8 µM | EC50 (Daphnia magna): 0.039 (0.023–0.05) μg/mL

Source: publication PMC12452389, “Arginine-Derived Cationic Surfactants Containing Phenylalanine and Tryptophan: Evaluation of Antifungal Activity, Biofilm Eradication, Cytotoxicity, and Ecotoxicity” (Journal of Xenobiotics, 2025)
